This is an account of results in paper PMC12299813, “Combined Metabolomics and Network Pharmacology to Reveal Anti-Diabetic Mechanisms and Potential Pharmacological Components of Synsepalum dulcificum” (Plants, 2025).

The target in one assay is α-glucosidase. As to the kind of experiment: α-glucosidase inhibition assay (PNPG method). As to conditions: acarbose positive control, three repetitions, read-out: IC50 ± SD of α-glucosidase inhibition, S. dulcificum components. Format: biochemical, yeast. From the text:
Ultrapure water was obtained using the UP series ultrapure water system (Chengdu, China). […] HPLC-grade formic acid was purchased from Shanghai Aladdin Biochemical Technology Co., Ltd. (Shanghai, China). HPLC-grade methanol and acetonitrile were purchased from Merck (Darmstadt, Germany). Di-methyl sulfoxide (DMSO) was purchased from Tianjin Dama Chemical Reagent Factory (Tianjin, China). Disodium hydrogen phosphate was purchased from Guangdong Guanghua Technology Co., Ltd. (Shantou, China). Other analytical-grade chemicals and reagents, such as sodium chloride and anhydrous ethanol, were obtained from Sichuan Xilong Scientific Co., Ltd. (Chengdu, China).
Soak the crushed stems, leaves, and fruits of S. dulcificum in methanol for 24 h, then extract the chemical components using ethyl acetate. After that, concentrate the extract using a rotary vacuum evaporator, repeating the extraction three times to obtain the crude extracts, which are then prepared at concentrations of 0.5, 1, 8, and 16 mg/mL, respectively, for subsequent inhibition experiments.
The assay was conducted following a previously described method, and made some minor adjustments. Briefly, 0.1 M phosphate-buffered saline (PBS, pH 6.9) was used to prepare standard sample solutions of different concentrations, α-glucosidase (1 U/mL), and p-nitrophenyl-α-D-glucopyranoside (α-PNPG, 5 mM). A mixture of the sample (50 μL) and α-glucosidase (50 μL) was incubated at 37 °C for 10 min, followed by the addition of 50 μL of PNPG and further incubation at 37 °C for 20 min. Finally, 100 μL of Na2CO3 (0.1 M) was added to terminate the reaction after incubating at 37 °C for 10 min. […] The experiment was set up with three repetitions, and the IC50 values were determined.

Details of assay [1]: method as in doi:10.1016/j.jtice.2010.05.008. As to conditions: isolated from the stem of SD; cited from earlier work.
The subject of assay [2] is type 2 diabetic albino rats. On the set-up: method as in PMID 28917550. As to conditions: cited from earlier work.

For orientation: IC50 means the midpoint of a concentration-inhibition curve. Turning to `C=C(C)[C@@H]1CC[C@]2(C(=O)O)CC[C@]3(C)[C@H](CC[C@@H]4[C@@]5(C)CC[C@H](O)C(C)(C)[C@@H]5CC[C@]43C)[C@@H]12` [Betulinic acid], the IC50 on α-glucosidase is 0.07 ± 0.02 mM.

As for `COc1cc(/C=C/CO)cc(OC)c1O[C@@H]1O[C@H](CO)[C@@H](O)[C@H](O)[C@H]1O` [Syringin], the IC50 at α-glucosidase was 5.4 ± 1.2 mM.

As for `COc1cc([C@H]2OC[C@H]3[C@@H]2CO[C@H]3c2cc(OC)c(O)c(OC)c2)cc(OC)c1O` [(+)-epi-syringaresinol], the “DPPH radical scavenging activity compared to positive control vitamin C” value in assay [1] is “superior”.

As for `C[C@H]1[C@H](C)CC[C@]2(C(=O)O)CC[C@]3(C)C(=CC[C@@H]4[C@@]5(C)C[C@@H](O)[C@H](O)C(C)(C)[C@@H]5CC[C@]43C)[C@H]12` [Corosolic acid], the half-inhibitory concentration (IC50) at α-glucosidase was found to be 2.12 ± 0.44 mM. As to `COC(=O)c1cc(O)c(O)c(O)c1` [Methyl gallate], on α-glucosidase, the concentration for half-maximal inhibition (IC50) is 4.18 ± 1.09 mM. For the molecule `COc1cc([C@H]2OC[C@H]3[C@@H]2CO[C@@H]3c2cc(OC)c(O)c(OC)c2)cc(OC)c1O` [(+)-syringaresinol], in assay [1], the “DPPH radical scavenging activity compared to positive control vitamin C” value is reported as “superior”. For the molecule `CC(C)=CCC/C(C)=C/CC/C(C)=C/CC/C=C(\C)CC/C=C(\C)CCC=C(C)C` [Squalene], the IC50 at α-glucosidase stood at 55.1 ± 1.8 mM. Consider `COc1ccc(Cl)cc1C(=O)NCCc1ccc(S(=O)(=O)NC(=O)NC2CCCCC2)cc1` [glibenclamide], for which, in assay [2], the blood glucose levels entry is listed as “significantly lowered”. Regarding `CC[C@H](/C=C/[C@@H](C)[C@H]1CC[C@H]2[C@@H]3CC=C4C[C@@H](O)CC[C@]4(C)[C@H]3CC[C@]12C)C(C)C` [Stigmasterol], the half-maximal inhibitory concentration (IC50) on α-glucosidase was 2.11 ± 0.24 mM.
